From paper PMC6222410, “Design, Synthesis and Docking Studies of Novel Macrocyclic Pentapeptides as Anticancer Multi-Targeted Kinase Inhibitors” (Molecules : A Journal of Synthetic Chemistry and Natural …, 2018)
Read-outs that look alike come from different tables or passages of the source.

Experiments:
HepG-2 cell line = assay: In vitro cytotoxicity on HepG-2 cell line; assay type: cell-based; settings: HepG-2 human hepatocellular carcinoma cells, concentration inhibiting cell viability by 50%, mean of three values, read-out: IC50 (Mean ± SEM) HepG-2
From the text: (§1) In vitro bioassay on human cancer cell lines was adopted against two cancer cell lines (MCF-7 and HepG-2). HepG2, human hepatocellular carcinoma and MCF-7, human breast cancer cell lines were obtained from Sigma-Aldrich Chemie GmbH, Taufkirchen, Germany.

MCF-7 cell line = assay: In vitro cytotoxicity on MCF-7 cell line; assay type: cell-based; settings: MCF-7 human breast cancer cells; concentration inhibiting cell viability by 50%; mean of three values; read-out: IC50 (Mean ± SEM) MCF-7
From the text: as §1

CDK-2 = CDK-2 (Homo sapiens, UniProt P24941); assay: In vitro kinase inhibition, ELISA assay; assay type: biochemical; settings: mean of three values, read-out: IC50 (Mean±SEM) CDK-2
PDGFRβ = PDGFRβ (Homo sapiens, UniProt P09619); assay: In vitro kinase inhibition, ELISA assay; assay type: biochemical; settings: mean of three values, read-out: IC50 (Mean±SEM) PDGFRβ
EGFR = EGFR (Homo sapiens, UniProt P00533); assay: In vitro kinase inhibition, ELISA assay; assay type: biochemical; settings: mean of three values, read-out: IC50 (Mean±SEM) EGFR
Description: The in vitro enzyme inhibition determination for compound 5c was carried out in confirmatory diagnostic unit, Vacsera, Egypt. […]

PDGFRβ, sequence (P09619 33-1106): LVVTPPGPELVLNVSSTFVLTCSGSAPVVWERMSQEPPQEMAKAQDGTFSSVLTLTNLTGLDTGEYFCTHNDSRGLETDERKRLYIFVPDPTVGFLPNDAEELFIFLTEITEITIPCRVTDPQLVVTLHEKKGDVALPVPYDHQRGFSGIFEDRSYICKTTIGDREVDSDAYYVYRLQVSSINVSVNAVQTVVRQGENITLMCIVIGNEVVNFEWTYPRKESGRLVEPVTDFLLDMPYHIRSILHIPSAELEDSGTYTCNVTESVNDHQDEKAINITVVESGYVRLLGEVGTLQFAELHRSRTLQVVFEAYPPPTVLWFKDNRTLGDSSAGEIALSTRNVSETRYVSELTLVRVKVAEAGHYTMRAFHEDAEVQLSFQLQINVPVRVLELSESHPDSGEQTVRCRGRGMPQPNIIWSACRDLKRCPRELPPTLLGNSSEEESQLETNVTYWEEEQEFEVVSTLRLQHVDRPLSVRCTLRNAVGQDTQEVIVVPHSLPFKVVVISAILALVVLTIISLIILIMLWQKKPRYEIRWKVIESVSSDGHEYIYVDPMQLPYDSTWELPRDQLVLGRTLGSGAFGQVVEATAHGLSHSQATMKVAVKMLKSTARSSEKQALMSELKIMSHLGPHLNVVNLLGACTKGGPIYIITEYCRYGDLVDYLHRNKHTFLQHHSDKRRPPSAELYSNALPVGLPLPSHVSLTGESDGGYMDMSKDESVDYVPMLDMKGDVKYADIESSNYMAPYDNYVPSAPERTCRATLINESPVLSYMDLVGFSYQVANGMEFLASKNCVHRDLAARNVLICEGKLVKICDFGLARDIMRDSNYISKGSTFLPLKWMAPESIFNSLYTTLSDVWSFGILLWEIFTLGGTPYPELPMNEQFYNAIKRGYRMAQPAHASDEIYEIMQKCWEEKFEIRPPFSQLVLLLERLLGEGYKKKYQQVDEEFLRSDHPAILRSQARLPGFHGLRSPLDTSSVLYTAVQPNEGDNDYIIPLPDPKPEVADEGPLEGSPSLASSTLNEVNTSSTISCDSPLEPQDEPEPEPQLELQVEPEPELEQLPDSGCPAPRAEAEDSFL
EGFR, sequence (P00533 25-1210): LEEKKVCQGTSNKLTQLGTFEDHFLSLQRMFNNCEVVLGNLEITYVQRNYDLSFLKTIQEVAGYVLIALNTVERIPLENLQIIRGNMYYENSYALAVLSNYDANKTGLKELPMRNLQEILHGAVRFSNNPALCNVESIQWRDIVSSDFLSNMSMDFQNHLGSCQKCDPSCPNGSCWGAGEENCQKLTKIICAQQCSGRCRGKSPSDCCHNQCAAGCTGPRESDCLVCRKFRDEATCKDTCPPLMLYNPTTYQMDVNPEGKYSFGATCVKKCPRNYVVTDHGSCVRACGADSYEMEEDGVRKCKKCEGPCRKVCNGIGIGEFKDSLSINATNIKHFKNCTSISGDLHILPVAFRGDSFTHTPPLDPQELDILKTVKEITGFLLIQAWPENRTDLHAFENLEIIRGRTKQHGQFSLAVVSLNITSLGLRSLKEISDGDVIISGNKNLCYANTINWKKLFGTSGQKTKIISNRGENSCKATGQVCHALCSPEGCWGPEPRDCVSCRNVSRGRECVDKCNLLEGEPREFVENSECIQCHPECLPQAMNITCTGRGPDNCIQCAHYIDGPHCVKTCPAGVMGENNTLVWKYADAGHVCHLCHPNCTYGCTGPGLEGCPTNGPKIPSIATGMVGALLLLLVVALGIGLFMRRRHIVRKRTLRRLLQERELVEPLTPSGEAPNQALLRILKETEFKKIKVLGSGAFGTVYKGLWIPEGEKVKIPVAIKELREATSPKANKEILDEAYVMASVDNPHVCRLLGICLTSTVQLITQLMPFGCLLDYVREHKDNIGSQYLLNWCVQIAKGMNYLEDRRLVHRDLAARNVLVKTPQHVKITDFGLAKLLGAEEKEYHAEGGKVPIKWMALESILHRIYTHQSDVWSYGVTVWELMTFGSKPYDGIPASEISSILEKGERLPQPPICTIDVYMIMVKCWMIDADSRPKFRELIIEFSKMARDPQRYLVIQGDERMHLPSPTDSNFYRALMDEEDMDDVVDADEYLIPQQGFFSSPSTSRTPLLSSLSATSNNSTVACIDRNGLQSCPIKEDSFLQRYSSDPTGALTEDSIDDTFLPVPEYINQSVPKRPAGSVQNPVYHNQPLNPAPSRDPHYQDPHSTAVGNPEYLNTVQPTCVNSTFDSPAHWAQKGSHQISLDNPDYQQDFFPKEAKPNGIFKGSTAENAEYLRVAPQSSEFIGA

CC[C@H](C)[C@@H]1NC(=O)c2cccc(n2)C(=O)N[C@@H]([C@@H](C)CC)C(=O)N[C@@H](Cc2ccccc2)C(=O)N[C@H](C(=O)NN)CCCCNC(=O)[C@H](Cc2ccccc2)NC1=O [Compound 6b, Cyclo-(N^α-dipicolinoyl)-bis[L-ILe-L-Phe]-L-Lys-NHNH2]
IC50 (HepG-2 cell line): 11.5 ± 1.7 µM | IC50 (MCF-7 cell line): 10.9 ± 1.1 µM | melting point: 161 to 163 °C

CC[C@H](C)[C@H](NC(=O)[C@H](Cc1ccccc1)NC(=O)c1cccc(C(=O)N[C@@H](Cc2ccccc2)C(=O)N[C@H](C(=O)O)[C@@H](C)CC)n1)C(=O)O [Compound 3c, N^α-Dipicolinoyl-bis[L-Phe-L-ILe]acid]
IC50 (HepG-2 cell line): 26.6 ± 1.85 µM | IC50 (MCF-7 cell line): 29.6 ± 2.06 µM | melting point: 202 to 204 °C

CC[C@H](C)[C@@H]1NC(=O)c2cccc(n2)C(=O)N[C@@H]([C@@H](C)CC)C(=O)N[C@@H]([C@@H](C)CC)C(=O)N[C@H](C(=O)NN)CCCCNC(=O)[C@H]([C@@H](C)CC)NC1=O [Compound 6a, Cyclo-(N^α-dipicolinoyl)-bis[L-ILe-L-ILe]-L-Lys-NHNH2]
IC50 (HepG-2 cell line): 12.4 ± 1.3 µM | IC50 (MCF-7 cell line): 11.8 ± 1.62 µM | melting point: 180 to 182 °C

CC[C@H](C)[C@H](NC(=O)c1cccc(C(=O)N[C@H](C(=O)N[C@@H](Cc2ccccc2)C(=O)O)[C@@H](C)CC)n1)C(=O)N[C@@H](Cc1ccccc1)C(=O)O [Compound 3b, N^α-Dipicolinoyl-bis[L-ILe-L-Phe]acid]
IC50 (HepG-2 cell line): 13.5 ± 1.45 µM | IC50 (MCF-7 cell line): 25.3 ± 1.18 µM | melting point: 184 to 186 °C

CC[C@H](C)[C@@H]1NC(=O)[C@H](Cc2ccccc2)NC(=O)c2cccc(n2)C(=O)N[C@@H](Cc2ccccc2)C(=O)N[C@@H]([C@@H](C)CC)C(=O)N[C@H](C(=O)OC)CCCCNC1=O [Compound 4c, Cyclo-(N^α-Dipicolinoyl)-bis-[L-Phe-L-ILe]-L-Lys-OMe]
IC50 (HepG-2 cell line): 18.8 ± 1.47 µM | IC50 (MCF-7 cell line): 29.2 ± 1.39 µM | melting point: 140 to 142 °C

O=c1[nH]cc(F)c(=O)[nH]1 [5-Fluorouracil®, 5-Fluorouracil, reference compound]
IC50 (HepG-2 cell line; HepG2): 43.8 ± 1.84 µM

CC[C@H](C)[C@@H]1NC(=O)c2cccc(n2)C(=O)N[C@@H]([C@@H](C)CC)C(=O)N[C@@H](Cc2ccccc2)C(=O)N[C@H](C(=O)OC)CCCCNC(=O)[C@H](Cc2ccccc2)NC1=O [Compound 4b, Cyclo-(N^α-Dipicolinoyl)-bis-[L-ILe-L-Phe]-L-Lys-OMe]
IC50 (HepG-2 cell line): 10.2 ± 2.2 µM | IC50 (MCF-7 cell line): 10.5 ± 1.33 µM | melting point: 104 to 106 °C

CC[C@H](C)[C@H](NC(=O)[C@@H](NC(=O)c1cccc(C(=O)N[C@H](C(=O)N[C@H](C(=O)O)[C@@H](C)CC)[C@@H](C)CC)n1)[C@@H](C)CC)C(=O)O [Compound 3a, N^α-Dipicolinoyl-bis[L-ILe-L-ILe]acid]
IC50 (HepG-2 cell line): 26 ± 2.35 µM | IC50 (MCF-7 cell line): > 100 µM | melting point: 178 to 180 °C

CC[C@H](C)[C@@H]1NC(=O)c2cccc(n2)C(=O)N[C@@H]([C@@H](C)CC)C(=O)N[C@@H](Cc2ccccc2)C(=O)N[C@H](C(=O)O)CCCCNC(=O)[C@H](Cc2ccccc2)NC1=O [Compound 5b, Cyclo-(N^α-dipicolinoyl)-bis [L-ILe-L-Phe]-L-Lys-OH]
IC50 (HepG-2 cell line): 10.1 ± 2.05 µM | IC50 (MCF-7 cell line): 11.3 ± 1.15 µM | melting point: 128 to 130 °C

CC[C@H](C)[C@H](NC(=O)[C@H](Cc1ccccc1)NC(=O)c1cccc(C(=O)N[C@@H](Cc2ccccc2)C(=O)N[C@H](C(=O)OC)[C@@H](C)CC)n1)C(=O)OC [Compound 2c, N^α-Dipicolinoyl-bis[L-Phe-L-ILe-methyl ester]]
IC50 (HepG-2 cell line): 35.5 ± 1.83 µM | IC50 (MCF-7 cell line): > 100 µM | melting point: 150 to 152 °C

CC[C@H](C)[C@H](NC(=O)c1cccc(C(=O)N[C@H](C(=O)N[C@H](C(=O)OC)[C@@H](C)CC)[C@@H](C)CC)n1)C(=O)N[C@H](C(=O)OC)[C@@H](C)CC [Compound 2a, N^α-Dipicolinoyl-bis[L-ILe-L-ILe-methyl ester]]
IC50 (HepG-2 cell line): 20.4 ± 1.36 µM | IC50 (MCF-7 cell line): 31.6 ± 1.3 µM | melting point: 106 to 108 °C

CC[C@H](C)[C@H](NC(=O)c1cccc(C(=O)N[C@H](C(=O)N[C@@H](Cc2ccccc2)C(=O)OC)[C@@H](C)CC)n1)C(=O)N[C@@H](Cc1ccccc1)C(=O)OC [Compound 2b, N^α-Dipicolinoyl-bis[L-ILe-L-Phe-methyl ester]]
IC50 (HepG-2 cell line): 15.8 ± 1.66 µM | IC50 (MCF-7 cell line): 32.6 ± 1.5 µM | melting point: 122 to 124 °C

CC[C@H](C)[C@@H]1NC(=O)[C@H](Cc2ccccc2)NC(=O)c2cccc(n2)C(=O)N[C@@H](Cc2ccccc2)C(=O)N[C@@H]([C@@H](C)CC)C(=O)N[C@H](C(=O)NN)CCCCNC1=O [Compound 6c, Cyclo-(N^α-Dipicolinoyl)-bis[L-Phe-L-ILe]-L-Lys-NHNH2]
IC50 (HepG-2 cell line): 12.1 ± 1.68 µM | IC50 (MCF-7 cell line): > 100 µM | melting point: 208 to 210 °C

CC[C@H](C)[C@@H]1NC(=O)c2cccc(n2)C(=O)N[C@@H]([C@@H](C)CC)C(=O)N[C@@H]([C@@H](C)CC)C(=O)N[C@H](C(=O)OC)CCCCNC(=O)[C@H]([C@@H](C)CC)NC1=O [Compound 4a, Cyclo-(N^α-dipicolinoyl)-bis-[L-ILe-L-ILe]-L-Lys-OMe]
IC50 (HepG-2 cell line): 11.6 ± 2.7 µM | IC50 (MCF-7 cell line): > 100 µM | melting point: 77 to 79 °C

CC[C@H](C)[C@@H]1NC(=O)[C@H](Cc2ccccc2)NC(=O)c2cccc(n2)C(=O)N[C@@H](Cc2ccccc2)C(=O)N[C@@H]([C@@H](C)CC)C(=O)N[C@H](C(=O)O)CCCCNC1=O [Compound 5c, Cyclo-(N^α-dipicolinoyl)-bis [L-Phe-L-ILe]-L-Lys-OH]
IC50 (CDK-2): 0.06 µM | IC50 (HepG-2 cell line): 7.53 ± 1.33 µM | IC50 (MCF-7 cell line): 9.41 ± 1.25 µM | IC50 (PDGFRβ): 0.08 µM | IC50 (EGFR): 0.14 µM | melting point: 178 to 180 °C

CC[C@H](C)[C@@H]1NC(=O)c2cccc(n2)C(=O)N[C@@H]([C@@H](C)CC)C(=O)N[C@@H]([C@@H](C)CC)C(=O)N[C@H](C(=O)O)CCCCNC(=O)[C@H]([C@@H](C)CC)NC1=O [Compound 5a, Cyclo-(N^α-dipicolinoyl)-bis [L-ILe-L-ILe]-L-Lys-OH]
IC50 (HepG-2 cell line): 11.2 ± 1.95 µM | IC50 (MCF-7 cell line): 12.7 ± 2.4 µM | melting point: 108 to 110 °C
